One experiment concerns the target human TLR7 (Homo sapiens (Human), UniProt Q9NYK1). Briefly: TLR7 inhibition reporter assay (HEK-Blue SEAP). It counts as cell-based. Conditions: HEK-Blue human TLR7 cells, gardiquimod 7.5 μM. A general note: Reporter assays use an easily measured gene product as a stand-in for the process of interest.
Another experiment addresses human TLR8 (Homo sapiens (Human), UniProt Q9NR97). Briefly: TLR8 inhibition reporter assay (HEK-Blue SEAP).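 Also: SEAP driven by IFN-β minimal promoter carrying NF-κB and AP-1 sites, compounds dosed 0.05 nM to 50 µM for 22 h, inhibition scaled between agonist-plus-DMSO and reference-inhibitor wells.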 Conditions: read-out: TLR8 IC50; HEK-Blue human TLR8 cells, R848 15.9 μM.
A further experiment deals with human TLR9 (Homo sapiens (Human), UniProt Q9NR96). Briefly: TLR9 inhibition reporter assay (HEK-Blue SEAP).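 Also: SEAP driven by an IFN-β minimal promoter with NF-κB and AP-1 sites, read after 22 h, compounds dosed 0.05 nM–50 µM, inhibition scaled between agonist plus DMSO and reference-inhibitor wells.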 Conditions: read-out: TLR9 IC50; HEK-Blue human TLR9 cells, ODN2006 5 nM.
Chain of human TLR9 (Q9NR96 26-1032): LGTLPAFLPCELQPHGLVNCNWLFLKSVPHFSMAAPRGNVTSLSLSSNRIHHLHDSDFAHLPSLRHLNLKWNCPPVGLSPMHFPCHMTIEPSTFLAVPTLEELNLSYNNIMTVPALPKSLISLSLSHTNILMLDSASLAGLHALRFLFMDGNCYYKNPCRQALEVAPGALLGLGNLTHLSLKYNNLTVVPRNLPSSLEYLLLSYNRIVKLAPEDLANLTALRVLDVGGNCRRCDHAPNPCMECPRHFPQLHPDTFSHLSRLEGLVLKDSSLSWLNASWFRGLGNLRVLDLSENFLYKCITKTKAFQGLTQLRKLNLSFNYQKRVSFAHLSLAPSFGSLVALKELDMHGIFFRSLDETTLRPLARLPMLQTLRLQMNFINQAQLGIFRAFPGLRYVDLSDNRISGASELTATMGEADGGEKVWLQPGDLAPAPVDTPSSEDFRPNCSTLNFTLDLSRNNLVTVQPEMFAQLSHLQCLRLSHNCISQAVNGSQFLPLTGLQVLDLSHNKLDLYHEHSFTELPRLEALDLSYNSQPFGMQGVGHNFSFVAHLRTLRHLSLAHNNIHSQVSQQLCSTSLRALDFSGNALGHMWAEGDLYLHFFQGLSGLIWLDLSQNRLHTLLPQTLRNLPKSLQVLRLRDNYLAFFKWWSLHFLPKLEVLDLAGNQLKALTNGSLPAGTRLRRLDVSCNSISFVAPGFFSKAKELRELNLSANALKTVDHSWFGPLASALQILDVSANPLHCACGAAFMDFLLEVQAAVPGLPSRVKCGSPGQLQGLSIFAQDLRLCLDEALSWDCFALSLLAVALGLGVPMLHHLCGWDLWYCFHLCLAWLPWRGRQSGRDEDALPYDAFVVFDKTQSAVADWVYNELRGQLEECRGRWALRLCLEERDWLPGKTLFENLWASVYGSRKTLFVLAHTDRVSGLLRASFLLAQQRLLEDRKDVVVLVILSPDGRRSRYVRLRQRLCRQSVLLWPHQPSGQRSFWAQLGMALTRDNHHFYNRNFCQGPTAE

Chain of human TLR8 (Q9NR97 27-1041): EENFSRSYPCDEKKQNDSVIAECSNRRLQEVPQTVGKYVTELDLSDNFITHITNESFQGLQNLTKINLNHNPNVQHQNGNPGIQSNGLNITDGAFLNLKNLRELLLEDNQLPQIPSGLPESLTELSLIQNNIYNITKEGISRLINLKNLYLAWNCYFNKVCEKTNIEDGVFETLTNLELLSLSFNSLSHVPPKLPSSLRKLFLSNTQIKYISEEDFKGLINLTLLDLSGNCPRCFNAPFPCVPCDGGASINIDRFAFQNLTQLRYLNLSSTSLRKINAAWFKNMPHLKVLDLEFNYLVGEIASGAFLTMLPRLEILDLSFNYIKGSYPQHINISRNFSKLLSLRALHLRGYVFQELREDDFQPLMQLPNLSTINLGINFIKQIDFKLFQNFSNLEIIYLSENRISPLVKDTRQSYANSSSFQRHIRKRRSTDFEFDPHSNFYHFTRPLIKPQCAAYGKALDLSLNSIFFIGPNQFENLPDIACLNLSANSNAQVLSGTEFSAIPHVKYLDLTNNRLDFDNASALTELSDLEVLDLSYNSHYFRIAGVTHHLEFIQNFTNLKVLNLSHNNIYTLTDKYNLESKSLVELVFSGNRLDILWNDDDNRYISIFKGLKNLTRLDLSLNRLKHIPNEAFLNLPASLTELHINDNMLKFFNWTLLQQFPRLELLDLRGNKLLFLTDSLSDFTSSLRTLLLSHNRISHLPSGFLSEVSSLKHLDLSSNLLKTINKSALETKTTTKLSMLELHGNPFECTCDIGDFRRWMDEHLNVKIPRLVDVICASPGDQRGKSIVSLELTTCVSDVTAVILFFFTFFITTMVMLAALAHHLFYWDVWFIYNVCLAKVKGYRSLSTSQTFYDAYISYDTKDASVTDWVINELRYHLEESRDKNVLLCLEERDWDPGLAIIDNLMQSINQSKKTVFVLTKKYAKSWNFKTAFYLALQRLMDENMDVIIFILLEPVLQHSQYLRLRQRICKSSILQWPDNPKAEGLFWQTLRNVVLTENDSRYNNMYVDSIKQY
Chain of human TLR7 (Q9NYK1 27-1049): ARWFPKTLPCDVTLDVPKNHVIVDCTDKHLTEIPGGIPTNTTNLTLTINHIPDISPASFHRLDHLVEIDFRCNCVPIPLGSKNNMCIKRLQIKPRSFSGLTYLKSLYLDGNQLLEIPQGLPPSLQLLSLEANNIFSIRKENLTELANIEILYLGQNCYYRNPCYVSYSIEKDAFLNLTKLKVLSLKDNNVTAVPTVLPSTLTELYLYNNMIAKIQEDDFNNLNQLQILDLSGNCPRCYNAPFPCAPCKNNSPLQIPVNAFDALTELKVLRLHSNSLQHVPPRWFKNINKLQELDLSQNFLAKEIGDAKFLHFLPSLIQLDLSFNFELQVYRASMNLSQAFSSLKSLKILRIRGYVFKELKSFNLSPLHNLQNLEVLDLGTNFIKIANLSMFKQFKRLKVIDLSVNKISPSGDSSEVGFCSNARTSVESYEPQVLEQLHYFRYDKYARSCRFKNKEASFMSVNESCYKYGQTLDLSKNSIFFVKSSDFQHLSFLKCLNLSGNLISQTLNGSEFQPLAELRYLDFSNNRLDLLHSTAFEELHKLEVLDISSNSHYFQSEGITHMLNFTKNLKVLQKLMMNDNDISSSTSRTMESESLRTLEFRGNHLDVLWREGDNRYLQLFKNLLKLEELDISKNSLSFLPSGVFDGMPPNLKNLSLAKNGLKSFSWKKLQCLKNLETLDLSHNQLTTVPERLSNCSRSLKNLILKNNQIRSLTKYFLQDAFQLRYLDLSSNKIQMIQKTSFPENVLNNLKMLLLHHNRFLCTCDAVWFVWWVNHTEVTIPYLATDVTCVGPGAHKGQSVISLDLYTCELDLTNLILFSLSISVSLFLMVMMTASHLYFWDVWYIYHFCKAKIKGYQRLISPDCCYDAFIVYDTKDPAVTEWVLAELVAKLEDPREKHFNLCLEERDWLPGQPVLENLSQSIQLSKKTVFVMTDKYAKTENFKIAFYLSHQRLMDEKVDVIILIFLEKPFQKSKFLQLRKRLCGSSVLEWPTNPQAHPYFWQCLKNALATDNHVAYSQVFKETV

On to `Cc1c(-c2[nH]c3ccc(C4CCC(N5CC(C(=O)N(C)C)C5)CC4)nc3c2C(C)C)cn2ncnc2c1C` (stereo not drawn) [Example 1050], for which the results for the IC50 on human TLR7, on human TLR8 and on human TLR9 were 2.8 nM, 4.8 nM and 2660 nM, respectively.

For `Cc1c(-c2[nH]c3ccc(C4CCC(N5CCC5)CC4)nc3c2C(C)C)cn2ncnc2c1C` (stereo not drawn) [Example 1051], the IC50 (in general, the midpoint of a concentration-inhibition curve) against human TLR7 came to 0.41 nM; on human TLR8, 1.5 nM; on human TLR9, 1910 nM.

For `Cc1c(-c2[nH]c3ccc(C4CCC(N5CC(C)(C)C5)CC4)nc3c2C(C)C)cn2ncnc2c1C` (stereo not drawn) [Example 1052], the values for the IC50 against human TLR7, on human TLR8 and on human TLR9 were 8.9 nM, 17 nM and 5920 nM, respectively.

For the molecule `Cc1c(-c2[nH]c3ccc([C@H]4CC[C@@H](N5CC6(C5)CS(=O)(=O)C6)CC4)nc3c2C(C)C)cn2ncnc2c1C` [Example 1053], the IC50 came out at 2.5 nM against human TLR7, 4.8 nM at human TLR8 and 4810 nM on human TLR9.

`Cc1c(-c2[nH]c3ccc(C4CCC(NC(C)(C)C)CC4)nc3c2C(C)C)cn2ncnc2c1C` (stereo not drawn) [Example 1054]: the IC50 against human TLR7 was 5.4 nM; on human TLR8 it was 1.7 nM; on human TLR9 it was 1690 nM.

Consider `Cc1c(-c2[nH]c3ccc(C4CCC(N5CC6(CCO6)C5)CC4)nc3c2C(C)C)cn2ncnc2c1C` (stereo not drawn) [Example 1055], for which the values for the IC50 at human TLR7, at human TLR8 and at human TLR9 were 4.3 nM, 8.3 nM and 5470 nM, respectively.

With `Cc1c(-c2[nH]c3ccc(C4CCC(NC(C)(C)C)CC4)nc3c2C(C)C)cn2ncnc2c1C` (stereo not drawn) [Example 1056], the IC50 turned out to be 2.1 nM on human TLR7, 1.2 nM at human TLR8 and 2990 nM on human TLR9.

Turning to `Cc1c(-c2[nH]c3ccc(C4CCC(N5CC6(CCO6)C5)CC4)nc3c2C(C)C)cn2ncnc2c1C` (stereo not drawn) [Example 1057], the results for the IC50 against human TLR7, at human TLR8 and at human TLR9 were 0.81 nM, 1.7 nM and 2700 nM, respectively.

For the molecule `Cc1c(-c2[nH]c3ccc(C4CCC(N5CCC(F)C5)CC4)nc3c2C(C)C)cn2ncnc2c1C` (stereo not drawn) [Example 1058], the IC50 turned out to be 1.9 nM against human TLR7, 3.5 nM at human TLR8 and 5280 nM at human TLR9.

On to `Cc1c(-c2[nH]c3ccc(C4CCC(N5CCC6(CCOC6)C5)CC4)nc3c2C(C)C)cn2ncnc2c1C` (stereo not drawn) [Example 1059], for which the IC50 against human TLR7 came out at 1.6 nM; at human TLR8 it was 1.4 nM; at human TLR9, 2250 nM.

Consider `Cc1c(-c2[nH]c3ccc(C4CCC(N5CCC6(COC6)C5)CC4)nc3c2C(C)C)cn2ncnc2c1C` (stereo not drawn) [Example 1060], for which the IC50 against human TLR7 turned out to be 0.5 nM; on human TLR8 it was 0.5 nM; at human TLR9 it was 2600 nM.

For `Cc1c(-c2[nH]c3ccc(C4CCC(N5CC6(CCOC6)C5)CC4)nc3c2C(C)C)cn2ncnc2c1C` (stereo not drawn) [Example 1061], the IC50 against human TLR7 was determined as 2.7 nM; at human TLR8, 4.8 nM; at human TLR9, 3180 nM.

On to `Cc1c(-c2[nH]c3ccc(C4CCC(N5CCC(F)C5)CC4)nc3c2C(C)C)cn2ncnc2c1C` (stereo not drawn) [Example 1062], for which the results for the IC50 on human TLR7, at human TLR8 and at human TLR9 were 13 nM, 25 nM and 10200 nM, respectively.

In the case of `Cc1c(-c2[nH]c3ccc(C4CCC(N5CCC6(COC6)C5)CC4)nc3c2C(C)C)cn2ncnc2c1C` (stereo not drawn) [Example 1063], the values for the IC50 against human TLR7, at human TLR8 and at human TLR9 were 10 nM, 18 nM and 8060 nM, respectively.

Turning to `Cc1c(-c2[nH]c3ccc(C4CCC(N5CCOCC5)CC4)nc3c2C(C)C)cn2ncnc2c1C` (stereo not drawn) [Example 1064], the IC50 against human TLR7 came out at 0.34 nM; at human TLR8, 0.96 nM; on human TLR9, 2460 nM.

As to `Cc1c(-c2[nH]c3ccc(C4CCC(N5CC6(CCOC6)C5)CC4)nc3c2C(C)C)cn2ncnc2c1C` (stereo not drawn) [Example 1065], the results for the IC50 against human TLR7, on human TLR8 and on human TLR9 were 1.1 nM, 1.1 nM and 2800 nM, respectively.

Take `Cc1c(-c2[nH]c3ccc(C4CCC(N5CCC6(CCOC6)C5)CC4)nc3c2C(C)C)cn2ncnc2c1C` (stereo not drawn) [Example 1066]: the half-maximal inhibitory concentration (IC50) is 9 nM at human TLR7, 11 nM on human TLR8 and 4290 nM at human TLR9.

Consider `COc1cc(-c2[nH]c3ccc(C4CCC(N5CCC(F)C5)CC4)nc3c2C(C)C)cn2ncnc12` (stereo not drawn) [Example 1067], for which the IC50 on human TLR7 is 1 nM; on human TLR8, 4.5 nM; at human TLR9 it was 5400 nM.

For the molecule `COc1cc(-c2[nH]c3ccc(C4CCC(N5CCC6(COC6)C5)CC4)nc3c2C(C)C)cn2ncnc12` (stereo not drawn) [Example 1068], the IC50 at human TLR7 worked out at 0.88 nM; on human TLR8, 1.8 nM; at human TLR9, 2960 nM.

With `COc1cc(-c2[nH]c3ccc(C4CCC(N5CC6(CCOC6)C5)CC4)nc3c2C(C)C)cn2ncnc12` (stereo not drawn) [Example 1069], the results for the IC50 at human TLR7, at human TLR8 and on human TLR9 were 0.09 nM, 0.17 nM and 735 nM, respectively.

Take `COc1cc(-c2[nH]c3ccc(C4CCC(N5CC6(CCOC6)C5)CC4)nc3c2C(C)C)cn2ncnc12` (stereo not drawn) [Example 1070]: the IC50 at human TLR7 worked out at 0.54 nM; on human TLR8, 0.72 nM; at human TLR9 it was 845 nM.

In the case of `COc1cc(-c2[nH]c3ccc(C4CCC(N5CCOCC5)CC4)nc3c2C(C)C)cn2ncnc12` (stereo not drawn) [Example 1071], the IC50 against human TLR7 came to 3.7 nM; at human TLR8 it was 25 nM; on human TLR9, 5950 nM.

As to `COc1cc(-c2[nH]c3ccc(C4CCC(N5CCC(F)C5)CC4)nc3c2C(C)C)cn2ncnc12` (stereo not drawn) [Example 1072], the IC50 against human TLR7 amounted to 2.9 nM; at human TLR8, 35 nM; on human TLR9 it was 5840 nM.

Regarding `COc1cc(-c2[nH]c3ccc(C4CCC(N5CCC6(COC6)C5)CC4)nc3c2C(C)C)cn2ncnc12` (stereo not drawn) [Example 1073], the IC50 at human TLR7 was 4.6 nM; on human TLR8 it was 28 nM; on human TLR9, 5830 nM.

With `COc1cc(-c2[nH]c3ccc(C4CCC(N5CC6(CCO6)C5)CC4)nc3c2C(C)C)cn2ncnc12` (stereo not drawn) [Example 1074], the IC50 against human TLR7 came out at 0.59 nM; at human TLR8, 1.9 nM; on human TLR9, 2130 nM.

Turning to `COc1cc(-c2[nH]c3ccc(C4CCC(N5CC6(CCO6)C5)CC4)nc3c2C(C)C)cn2ncnc12` (stereo not drawn) [Example 1075], the IC50 at human TLR7 is 1.8 nM; at human TLR8, 11 nM; at human TLR9, 3350 nM.

For `Cc1c(-c2[nH]c3ccc(C4CCC(N5CC6(CCS6(=O)=O)C5)CC4)nc3c2C(C)C)cn2ncnc2c1C` (stereo not drawn) [Example 1076], the IC50 against human TLR7 was 1.6 nM; on human TLR8, 1.8 nM; at human TLR9, 10600 nM.

For the molecule `Cc1c(-c2[nH]c3ccc(C4CCC(N5CC6(CCS6(=O)=O)C5)CC4)nc3c2C(C)C)cn2ncnc2c1C` (stereo not drawn) [Example 1077], the IC50 against human TLR7 worked out at 18 nM; on human TLR8 it was 38 nM; at human TLR9, 21800 nM.

In the case of `CNC1CCC(c2ccc3[nH]c(-c4cn(C)c5ncncc45)c(C(C)C)c3n2)CC1` (stereo not drawn) [Example 1078], the IC50 on human TLR7 is 9.8 nM; on human TLR8, 216 nM; at human TLR9, greater than 50000 nM.

The values above are taken from patent publication US10544143B2, “4-azaindole compounds” (BRISTOL-MYERS SQUIBB COMPANY, priority 2017, dated 2020).
